{"source": "patent US7897630B2", "about": "“5-aryl isoxazolines for controlling invertebrate pests” (E.I. du Pont de Nemours and Company, priority 2005, dated 2011)", "system": "cat flea (Ctenocephalides felis Bouche)", "experiment": "Test H: control of cat flea on orally dosed CD-1 mouse", "assay_type": "in vivo", "conditions": "oral 10 mg/kg, fleas applied 2 hours after dosing, evaluated 48 hours after flea application", "procedure": "For evaluating control of the cat flea (Ctenocephalides felis Bouche), a CD-1® mouse (about 30 g, male, obtained from Charles River Laboratories, Wilmington, Mass.) was orally dosed with a test compound in an amount of 10 mg/kg solubilized in propylene glycol/glycerol formal (60:40). Two hours after oral administration of the test compound, approximately 8 to 16 adult fleas were applied to each mouse. The fleas were then evaluated for mortality 48 hours after flea application to the mouse.", "data": [{"smiles": "CSc1ccc(C2=NOC(c3cc(Cl)cc(Cl)c3)(C(F)(F)F)C2)cc1Br", "note": "(racemic) [Compound 205]", "values": [{"measurement": "flea mortality", "value": "≥ 20", "unit": "%"}]}]}
